# Test results published in US11590129B2, “Combination therapy with an antitumor alkaloid” (PHARMA MAR, S.A., priority 2010, dated 2023).
# Columns and labels:
# [1] = tested on: A549 human lung carcinoma cell line; assay: MTT cytotoxicity assay in A549 cells: IC50 of single agents and combinations with PM01183; format: cell-based; conditions: Homo sapiens, A549, 72 h
# In short: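 A549 cells seeded at 5,000 per well, grown 24 h drug-free, then exposed to vehicle or compounds for 72 h, either singly or combined with PM01183. Combination responses plotted against dose ratio relative to an additivity line.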
# [2] = tested on: SK-MEL-2 human melanoma cell line; assay: cells; conditions: Homo sapiens, SK-MEL-2, 72 h
# In short: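 SK-MEL-2 melanoma cells (5,000/well) grown 24 h drug-free, then exposed 72 h to vehicle or test compounds. Viability by MTT reduction (8 h, 37 °C), formazan dissolved in DMSO; results expressed as percentage of control cell growth.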
# [3] = tested on: IGROV-1 human ovarian adenocarcinoma cell line; assay: cells; conditions: Homo sapiens, IGROV-1, 72 h
# [4] = tested on: A673 human rhabdomyosarcoma cell line; assay: cells; conditions: Homo sapiens, A673, 72 h
# In short: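 A673 cells seeded at 5,000 per well, grown 24 h drug-free, then exposed to compounds for 72 h. Viability by MTT reduction (8 h, 37 °C), formazan dissolved in DMSO. Results expressed as percentage of control cell growth.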
# [5] = tested on: PC-3 human prostate cancer cell line; assay: cells; conditions: Homo sapiens, PC-3, 72 h
# In short: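 Cells seeded at 5,000/well, grown 24 h drug-free, then exposed to vehicle or test compounds for 72 h. Viability by MTT reduction (8 h, 37 °C), formazan dissolved in DMSO. Values given as percentage of control cell growth.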
# [6] = tested on: U87-MG human glioblastoma cell line; assay: cells; conditions: Homo sapiens, U-87 MG, 72 h
# [7] = tested on: HepG2 human hepatocellular liver carcinoma cell line; assay: MTT cytotoxicity assay in HepG2 cells: IC50 of single agents and combinations with PM01183; format: cell-based; conditions: Homo sapiens, HepG2, 72 h
# [8] = tested on: HGC-27 human gastric carcinoma cell line; assay: cells; conditions: Homo sapiens, HGC-27, 72 h
# [9] = tested on: RXF-393 human kidney carcinoma cell line; assay: cells; conditions: Homo sapiens, RXF 393, 72 h
# [10] = tested on: MDA-MB-231 human breast adenocarcinoma cell line; assay: cells; conditions: Homo sapiens, MDA-MB-231, 72 h
# [11] = tested on: PANC-1 human pancreatic carcinoma cell line; assay: cells; conditions: Homo sapiens, PANC-1, 72 h
# In short: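 Cells seeded at 5,000/well, left 24 h drug-free, then exposed to test compounds for 72 h. Viability read by MTT reduction (MTT added for 8 h at 37° C, formazan dissolved in DMSO).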
# [12] = tested on: MOLT-4 human leukemia cell line; assay: cells; conditions: Homo sapiens, MOLT-4, 72 h
# Protocol: (§1) Additional serial dilutions were prepared in serum-free culture medium to achieve a final 4× concentration. Aliquots of 50 μL of each diluted compound were added per well.
# (§2) JURKAT and MOLT-4 were the human leukemia cell lines selected for this assay, which were obtained from the American Type Culture Collection (ATCC).
# (§3) Briefly, cells were seeded in 96 well microtiter plates at a density of 50000 cells per well in 150 μL of culture medium and incubated for 4-6 hours in drug-free medium before treatment with vehicle alone or test compounds for 72 hours.
# (§4) After incubation, the cytotoxic effect was evaluated using a MTT reduction assay. 50 μL of MTT solution (1 mg/mL) were added to the wells and incubated for 15-17 hours at 37° C. until formazan crystals were formed. After gently removing the culture medium, DMSO was added to dissolve the insoluble purple formazan product into a colored solution. […] Results were expressed as percentage of control cell growth. The EC50 values (half-maximal effective concentration) used for the combination studies were calculated using Prism v5.02 software (GraphPad). EC50 was expressed as molar concentration and represented the mean of at least three independent assays.
# (§5) b. In a second set of experiments, concentration-response curves for the agents tested, both alone and in two-drug combination, were performed, using the same methodology described in the previous paragraph.
# (§6) Using these starting concentrations, constant serial dilutions were performed to generate the concentration-response curves for each set of drugs, alone and in combination.
# (§7) Based on this equation, the term “combination index” (CI) is used as a quantitative measure of the degree of drug interactions. […] CI values were calculated by solving the equation for different values of fa (i.e., for different degrees of cell groth inhibition).
# (§8) Data were analyzed using CalcuSyn software (Biosoft, Cambridge, UK). For statistical analysis and graphs Prism software (GraphPad, San Diego, USA) was used. All the results represent the mean of at least three independent experiments.
# [13] = tested on: JURKAT human leukemia cell line; assay: cells; conditions: Homo sapiens, Jurkat, 72 h
# Protocol: as §1, §2, §3, §4, §5, §6, §7, §8
# [14] = tested on: U-937 human lymphoma cell line; assay: cells; conditions: Homo sapiens, U-937, 72 h
# Protocol: as §3, §4, §6, §7, §8, §1
# (§9) In the second set of assays, concentration-response curves for the agents tested, both alone and in two-drug combination, were performed.
# [15] = tested on: RAMOS human lymphoma cell line; assay: cells; conditions: Homo sapiens, Ramos, 72 h
# Protocol: as §3, §4, §6, §7, §8, §1, §9
smiles,measurement,setting,value
"COc1cc2c(cc1O)CCN[C@]21CS[C@@H]2c3c(OC(C)=O)c(C)c4c(c3[C@H](COC1=O)N1[C@@H]2[C@H]2c3c(cc(C)c(OC)c3O)C[C@@H]([C@@H]1O)N2C)OCO4 [ET-743, trabectedin]",IC50,[1],22.5 nM
same,IC50,[2],2 nM
same,IC50,[3],6.45 nM
same,IC50,[4],1.9 nM
same,IC50,[5],8 nM
same,IC50,[6],5 nM
same,IC50,[7],7.21 nM
same,IC50,[8],5.8 nM
same,IC50,[9],9.6 nM
same,IC50,[10],2 nM
same,IC50,[11],21 nM
same,EC50,[12],3.84 nM
same,EC50,[13],6.96 nM
same,EC50,[14],8.62 nM
same,EC50,[15],9.55 nM
